For eleven compounds, IC50 results are on record in patent US8119663B2, “Heteroaryl-substituted piperidines” (Bayer Pharma Aktiengesellschaft, priority 2007, dated 2012).

In experiment [1] the target is T1, human protease activated receptor 1 (PAR1) (Homo sapiens, UniProt P25116).
T1 construct: the cell stably expresses the endogenous human PAR1 receptor and the endogenous purinergic receptor P2Y2; endogenous in cells; host or cells: HEK293-derived recombinant cell line constitutively expressing mitochondrial aequorin
T1 sequence (P25116 22-425): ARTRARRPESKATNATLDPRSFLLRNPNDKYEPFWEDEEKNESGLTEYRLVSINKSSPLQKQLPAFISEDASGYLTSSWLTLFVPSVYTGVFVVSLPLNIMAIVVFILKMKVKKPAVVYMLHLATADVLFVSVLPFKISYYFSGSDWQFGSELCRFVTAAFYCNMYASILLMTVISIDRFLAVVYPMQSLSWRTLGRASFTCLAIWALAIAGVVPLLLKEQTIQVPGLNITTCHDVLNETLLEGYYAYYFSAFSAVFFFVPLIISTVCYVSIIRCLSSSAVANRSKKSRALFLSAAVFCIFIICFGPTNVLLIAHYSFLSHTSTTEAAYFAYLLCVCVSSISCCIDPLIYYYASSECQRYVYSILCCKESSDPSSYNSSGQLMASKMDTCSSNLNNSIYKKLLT
In words: Cellular functional in vitro test (aequorin luminescence, PAR1 test cell). The experiment is classed as cell-based. Particulars: recombinant HEK293-derived cell line expressing aequorin; PAR1 agonist added at its EC50 5 minutes after test substance. The text has this: 1.a) Cellular Functional In vitro Test
A recombinant cell line is used to identify […] of the human protease activated receptor 1 (PAR1) and to quantify the activity of the substances described herein. The cell is originally derived from a human embryonal kidney cell (HEK293; ATCC: American Type Culture Collection, Manassas, Va. 20108, USA). The test cell line constitutively expresses a modified form of the calcium-sensitive photoprotein aequorin which, after reconstitution with the cofactor coelenterazine, emits light when the free calcium concentration in the inner mitochondrial compartment is increased (Rizzuto R, Simpson A W, Brini M, Pozzan T.; Nature 1992, 358, 325-327). Additionally, the cell stably expresses the endogenous human PAR1 receptor and the endogenous purinergic receptor P2Y2. The resulting PAR1 test cell responds to stimulation of the endogenous PAR1 or P2Y2 receptor with an intracellular release of calcium ions, which can be quantified through resulting aequorin luminescence with a suitable luminometer (Milligan G, Marshall F, Rees S, Trends in Pharmacological Sciences 1996, 17, 235-237).
For testing the substance specificity, its effect after activation of the endogenous PAR1 receptor is compared to the effect after activation of the endogenous purinergic P2Y2 receptor which utilizes the same intracellular signal path.
Test procedure: The cells are plated out two days (48 hours) before the test in culture medium (DMEM F12, supplemented with 10% FCS, 2 mM glutamine, 20 mM HEPES, 1.4 mM pyruvate, 0.1 mg/ml gentamycin, 0.15% Na bicarbonate; BioWhittaker Cat.# BE04-687Q; B-4800 Verviers, Belgium) in 384-well microtitre plates and kept in a cell incubator (96% atmospheric humidity, 5% V/V CO2, 37° C.). On the day of the test, the culture medium is replaced by a tyrode solution (in mM: 140NaCl, 5l KCl, 1MgCl2, 2CaCl2, 20 glucose, 20 HEPES), which additionally contains the cofactor coelenterazine (25 μM) and glutathione (4 mM), and the microtitre plate is then incubated for a further 3-4 hours. The test substances are then pipetted onto the microtitre plate, and 5 minutes after the transfer of the test substances into the wells of the microtitre plate the plate is transferred into the luminometer, a PAR1 agonist concentration which corresponds to the EC50 is added and the resulting light signal is immediately measured in the luminometer. To distinguish an antagonist substance action from a toxic action, the endogenous purinergic receptor is immediately subsequently activated with agonist (ATP, final concentration 10 μM) and the resulting light signal is measured.

In experiment [2] the test system is platelet-rich plasma (platelet aggregation triggered by thrombin receptor agonist TRAP6, SFLLRN). Briefly: Platelet aggregation in plasma (TRAP6/SFLLRN-induced, Born turbidimetry). The experiment is classed as cell-based. The following applies: Homo sapiens; platelet-rich plasma of healthy volunteers; 10 min incubation at 37° C.; light transmission 5 minutes after agonist; concentration at which aggregation is 50% inhibited. On the procedure: 1.c) Platelet Aggregation in Plasma
To determine the platelet aggregation, blood of healthy volunteers of both sexes who had not received any thrombocyte aggregation-influencing medication for the last ten days is used. The blood is drawn into monovettes (Sarstedt, Nümbrecht, Germany) which contain, as anticoagulant, sodium citrate 3.8% (1 part of citrate+9 parts of blood). To obtain platelet-rich plasma, the citrated whole blood is centrifuged at 140 g for 20 min.
For the aggregation measurements, aliquots of the platelet-rich plasma are incubated with increasing concentrations of test substance at 37° C. for 10 min. Aggregation is then triggered by addition of a thrombin receptor agonist (TRAP6, SFLLRN) in an aggregometer and determined at 37° C. using the turbidimetric method according Born (Born, G. V. R., Cross M. J., The Aggregation of Blood Platelets; J. Physiol. 1963, 168, 178-195). The SFLLRN concentration giving maximum aggregation is individually determined for each donor.
To calculate the inhibitory effect, the increase of light transmission (amplitude of the aggregation curve in %) is determined 5 minutes after addition of the agonist in the presence and absence of test substance, and the inhibition is calculated. The concentration at which the aggregation is 50% inhibited is calculated from the inhibition curves.

As for `CCc1ccc(C2CC(c3nc(Cc4ccccc4Cl)no3)CN(C(=O)N3CCOCC3)C2)cc1` (racemic) [Example 60, 4-({3-[3-(2-Chlorobenzyl)-1,2,4-oxadiazol-5-yl]-5-(4-ethylphenyl)piperidin-1-yl}carbonyl)-morpholine], the figures for the 50% inhibitory concentration (IC50) in experiment [1] and in experiment [2] were 10 nM and 19600 nM, respectively. On to `CCc1ccc(C2CC(c3nc(-c4c(F)cccc4F)no3)CN(C(=O)N3CCOCC3)C2)cc1` (racemic) [Example 39, 4-({3-[3-(2,6-Difluorophenyl)-1,2,4-oxadiazol-5-yl]-5-(4-ethylphenyl)piperidin-1-yl}carbonyl)-morpholine], for which the IC50 worked out at 6.8 nM in experiment [1] and 5600 nM in experiment [2]. With `O=C(N1CCOCC1)N1CC(c2ccc(OC(F)(F)F)cc2)CC(c2nc(-c3ccc(F)cc3F)no2)C1` (racemic) [Example 38, 4-({3-[3-(2,4-Difluorophenyl)-1,2,4-oxadiazol-5-yl]-5-[4-(trifluoromethoxy)phenyl]piperidin-1-yl}carbonyl)morpholine], the IC50 in experiment [1] was determined as 31 nM; in experiment [2], 93000 nM. Turning to `Cc1cc(C2CC(c3nc(-c4cccc(F)c4)no3)CN(C(=O)N3CCC(O)CC3)C2)ccc1OC(F)(F)F` (racemic) [Example 229, {3-[3-(3-Fluorophenyl)-1,2,4-oxadiazol-5-yl]-5-[3-methyl-4-(trifluoromethoxy)phenyl]piperidin-1-yl}(4-hydroxypiperidin-1-yl)methanone], in experiment [1], the IC50 was 1.72 nM. Consider `O=C(N1CCOCC1)N1CC(c2ccc(OC(F)(F)F)cc2)CC(c2nnc(-c3ccccc3)s2)C1` (racemic) [Example 495, Morpholin-4-yl{3-(5-phenyl-1,3,4-thiadiazol-2-yl)-5-[4-(trifluoromethoxy)phenyl]piperidin-1-yl}-methanone], for which the IC50 in experiment [1] came to 3.51 nM. For the compound `Cc1ccncc1-c1noc(C2CC(c3ccc(C(F)(F)F)cc3)CN(C(=O)N3CCOCC3)C2)n1` (racemic) [Example 329, {3-[3-(4-Methylpyridin-3-yl)-1,2,4-oxadiazol-5-yl]-5-[4-(trifluoromethyl)phenyl]piperidin-1-yl}-(morpholin-4-yl)methanone], the IC50 in experiment [1] worked out at 24 nM.

On to `CC(C)c1noc(C2CC(c3ccc(OC(F)(F)F)cc3)CN(C(=O)N3CCC(C#N)CC3)C2)n1` (racemic) [Example 520, 1-({3-[3-(Propan-2-yl)-1,2,4-oxadiazol-5-yl]-5-[4-(trifluoromethoxy)phenyl]piperidin-1-yl}-carbonyl)piperidine-4-carbonitrile], for which the half-maximal inhibitory concentration (IC50) in experiment [1] turned out to be 11 nM.

As for `COCCc1noc(C2CC(c3ccc(OC(F)(F)F)cc3)CN(C(=O)N3CCOCC3)C2)n1` (single isomer, unassigned) [Example 178, {3-[3-(2-Methoxyethyl)-1,2,4-oxadiazol-5-yl]-5-[4-(trifluoromethoxy)phenyl]piperidin-1-yl}-(morpholin-4-yl)methanone], in experiment [1], the IC50 is 17.1 nM.

Take `O=C(N1CCOCC1)N1CC(c2cccc(C(F)(F)F)c2)CC(c2nc(-c3c(F)cccc3F)no2)C1` (centres unmarked) [Example 352]: the half-inhibitory concentration (IC50) in experiment [1] was 4.77 nM. Turning to `CCc1ccc(C2CC(c3nc(CCOC)no3)CN(C(=O)N3CCC(O)CC3)C2)cc1` (single isomer, unassigned) [Example 549, {3-(4-Ethylphenyl)-5-[3-(2-methoxyethyl)-1,2,4-oxadiazol-5-yl]piperidin-1-yl}(4-hydroxy-piperidin-1-yl)methanone], the IC50 in experiment [1] was 12.5 nM. With `COCc1nc(C2CC(c3ccc(C(F)(F)F)cc3)CN(C(=O)N3CCOCC3)C2)no1` (centres unmarked) [Example 465, {3-[5-(Methoxymethyl)-1,2,4-oxadiazol-3-yl]-5-[4-(trifluoromethyl)phenyl]piperidin-1-yl}-(morpholin-4-yl)methanone], the IC50 in experiment [1] was 24.4 nM.
